Test [1] addresses T1, human KDR (VEGF-receptor-2) (Homo sapiens, UniProt P35968).
T1 construct: beginning at Met-806; (5′-ATG GAT CCA GAT GM CTC CCA TTG) and ending at Val-1356; made in house
In words: KDR kinase enzyme assay (DELFIA, KDR-IC-Flag, poly(Glu4-Tyr) peptide). In kind it is biochemical. Particulars: for inhibition at 0.1 µM: Concentration 100 nM; for inhibition at 1 µM: Concentration 1000 nM.

A further test addresses KDR (Homo sapiens, UniProt P35968). In words: cell-based. Particulars: read-out: % Inhibition of KDR kinase autophosphorylation in KDR15 cells, compound conc. 1000 nM.
For test [2], the system named is Human umbilical vein endothelial cells (HUVEC). Nature of the test: HUVEC proliferation assay, VEGF-dependent growth ([3H]-thymidine incorporation). The note with it: for inhibition at 0.1 µM / inhibition at 1 µM / inhibition at 10 µM: Homo sapiens, HUVEC. The test is classed as cell-based. The method, then: Cells were plated into 96-well dishes (4000 cells per well) and allowed to attach overnight. HUVEC were rinsed one time with 100 μl of EBMc-V (EBM supplemented with all above components except serum or VEGF), then 50 ul of EBMc-V was added to cells. Compounds were prepared at 200× stocks in DMSO, diluted into EBMc-V media as 4× stocks, then 50 ul added to appropriate wells. Finally, 100 μl of 2×VEGF (100 ng/ml prepared in EBMc-V; final 50 ng/ml VEGF) was added to all VEGF-treated wells. EBMc-V (no VEGF) was added to negative control wells. Parallel compound-treated plates were prepared except that 100 μl of EGM2 media containing 2% serum but lacking VEGF (EGMc-V) was added. Cells were incubated for 4-5 days at 37° C.
DNA synthesis was assessed by thymidine incorporation. Cells were incubated for 5 hours in 1 μCi of [^3H]-thymidine (PerkinElmer) by addition of 10 ul of 0.1 μCi/ul thymidine prepared in PBS to each well. After incubation, media was aspirated and the cells trypsinized and collected onto a mat using a vacuum-based Micro Cell Harvester (Skatron). [^3H]-thymidine was counted in a liquid scintillation counter. Compounds evaluated for ability to inhibit VEGF-dependent growth of human umbilical vein endothelial cells (HUVEC).

Where [3] appears, read: ATP conc. 10 μM, read-out: % Inhibition.
The mark [4] stands for this setting: ATP conc. 1000 μM, read-out: % Inhibition.

Several values for one entry are separate records, joined by “and”; a condition that tells them apart may be missing. Equal entries are not always repeated. Where two headings read alike, the source gives them in different places.

KDR, sequence (P35968 20-1356): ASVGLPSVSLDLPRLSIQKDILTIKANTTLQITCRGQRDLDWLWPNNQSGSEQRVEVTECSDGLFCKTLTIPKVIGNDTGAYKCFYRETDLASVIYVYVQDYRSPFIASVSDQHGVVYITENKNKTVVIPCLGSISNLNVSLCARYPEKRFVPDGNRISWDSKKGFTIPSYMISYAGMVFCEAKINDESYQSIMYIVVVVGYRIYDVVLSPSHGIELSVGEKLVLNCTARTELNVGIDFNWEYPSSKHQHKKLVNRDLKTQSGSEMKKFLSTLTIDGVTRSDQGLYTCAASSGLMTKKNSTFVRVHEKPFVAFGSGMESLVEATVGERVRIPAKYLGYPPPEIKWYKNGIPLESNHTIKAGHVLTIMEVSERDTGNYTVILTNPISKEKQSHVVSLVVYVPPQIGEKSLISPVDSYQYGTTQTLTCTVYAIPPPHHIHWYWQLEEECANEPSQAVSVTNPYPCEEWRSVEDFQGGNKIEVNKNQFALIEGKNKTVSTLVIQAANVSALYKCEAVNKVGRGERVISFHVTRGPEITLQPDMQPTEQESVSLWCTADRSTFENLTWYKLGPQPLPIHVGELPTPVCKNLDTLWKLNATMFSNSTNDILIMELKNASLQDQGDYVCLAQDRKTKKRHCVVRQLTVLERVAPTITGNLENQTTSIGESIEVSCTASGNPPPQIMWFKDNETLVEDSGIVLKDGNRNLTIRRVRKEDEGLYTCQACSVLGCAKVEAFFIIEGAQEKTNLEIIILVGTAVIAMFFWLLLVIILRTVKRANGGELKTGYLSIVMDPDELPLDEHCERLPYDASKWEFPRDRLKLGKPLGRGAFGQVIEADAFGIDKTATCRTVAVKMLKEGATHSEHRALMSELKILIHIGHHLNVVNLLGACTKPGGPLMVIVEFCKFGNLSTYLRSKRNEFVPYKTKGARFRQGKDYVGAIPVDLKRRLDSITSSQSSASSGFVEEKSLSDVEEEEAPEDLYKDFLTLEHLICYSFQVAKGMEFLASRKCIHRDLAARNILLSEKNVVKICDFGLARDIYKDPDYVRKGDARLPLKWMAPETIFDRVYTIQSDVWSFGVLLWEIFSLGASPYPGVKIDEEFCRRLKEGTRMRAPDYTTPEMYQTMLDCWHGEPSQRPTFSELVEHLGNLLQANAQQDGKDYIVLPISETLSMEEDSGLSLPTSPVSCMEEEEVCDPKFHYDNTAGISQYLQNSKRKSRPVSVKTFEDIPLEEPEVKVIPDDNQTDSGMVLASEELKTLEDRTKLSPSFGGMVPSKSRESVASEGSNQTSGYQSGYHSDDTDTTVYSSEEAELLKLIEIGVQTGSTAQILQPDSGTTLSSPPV
T1 sequence (P35968 806-1356): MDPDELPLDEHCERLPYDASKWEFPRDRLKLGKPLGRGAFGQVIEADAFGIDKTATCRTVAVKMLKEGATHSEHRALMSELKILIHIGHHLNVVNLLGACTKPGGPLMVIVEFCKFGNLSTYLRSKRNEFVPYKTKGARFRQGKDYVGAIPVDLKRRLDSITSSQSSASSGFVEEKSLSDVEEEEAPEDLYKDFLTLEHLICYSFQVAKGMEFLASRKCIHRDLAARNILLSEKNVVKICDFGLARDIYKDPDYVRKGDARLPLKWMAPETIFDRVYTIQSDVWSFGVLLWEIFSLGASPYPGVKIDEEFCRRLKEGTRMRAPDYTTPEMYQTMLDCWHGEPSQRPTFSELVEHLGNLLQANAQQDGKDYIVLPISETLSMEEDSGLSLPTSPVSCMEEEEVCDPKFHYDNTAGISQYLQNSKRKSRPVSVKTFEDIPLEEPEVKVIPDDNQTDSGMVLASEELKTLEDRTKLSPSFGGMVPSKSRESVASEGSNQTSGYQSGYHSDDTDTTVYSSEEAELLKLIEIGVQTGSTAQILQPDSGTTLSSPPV

For orientation: inhibition means the change of the read-out against control, counted positive when it falls. In the case of `COCCOc1cc2ncnc(NC3=CC(=O)C(N(C)Cc4ccccc4)=CC3=O)c2cc1OC` [Example 82, 2-[benzyl(methyl)amino]-5-{[6-methoxy-7-(2-methoxyethoxy)quinazolin-4-yl]amino}benzo-1,4-quinone], the inhibition at 0.1 µM in test [1] (setting [3]) was found to be 15%. Also, the inhibition at 1 µM stood at 30% in test [1] (setting [3]), 45% in test [1] (setting [4]) and 12% on KDR.

As for `COCCOc1cc2ncnc(NC3=CC(=O)C(Oc4ccc(C(=O)OC)cc4)=CC3=O)c2cc1OC` [Example 42, methyl 4-[(4-{[6-methoxy-7-(2-methoxyethoxy)quinazolin-4-yl]amino}-3,6-dioxocyclohexa-1,4-dien-1-yl)oxy]benzoate], in test [1] (setting [3]), the inhibition at 0.1 µM is 92% and the inhibition at 1 µM was 94%. Besides, the inhibition at 1 µM at KDR stood at 64%.

Broadly, the IC50 is the midpoint of a concentration-inhibition curve. Low readings indicate higher potency, high ones lower potency. The compound `COCCOc1cc2ncc(C#N)c(NC3=CC(=O)C(Oc4ccccc4)=CC3=O)c2cc1OC` [Example 71, 4-[(3,6-dioxo-4-phenoxycyclohexa-1,4-dien-1-yl)amino]-6-methoxy-7-(2-methoxyethoxy)quinoline-3-carbonitrile] registered a 50% inhibitory concentration (IC50) in test [1] (ATP conc. 10 μM) of 273 nM. Besides, in test [1] (setting [3]), the inhibition at 0.1 µM is 41% and the inhibition at 1 µM came to 85%. For the same compound, the inhibition at 1 µM in test [1] (setting [4]) came out at 58%.

Consider `COCCOc1cc2ncnc(NC3=CC(=O)C(Oc4ccc(C(=O)/C=C/c5ccccc5)cc4)=CC3=O)c2cc1OC` [Example 55, 2-{[6-methoxy-7-(2-methoxyethoxy)quinazolin-4-yl]amino}-5-{4-[(2E)-3-phenylprop-2-enoyl]phenoxy}benzo-1,4-quinone], for which the half-inhibitory concentration (IC50) in test [1] (ATP conc. 10 μM) came to 5.4 nM. Moreover, the inhibition at 0.1 µM in test [1] (setting [3]) was 90%; in test [2] (conc. 100 nM) it was 7%. Further, the inhibition at 1 µM turned out to be 93% in test [1] (setting [3]) and 61% in test [2] (conc. 1000 nM). In test [2] (conc. 10000 nM), the inhibition at 10 µM is 99%.

Turning to `COCCOc1cc2ncnc(NC3=C(Sc4ccccc4)C(=O)C=C(OC)C3=O)c2cc1OC` [Example 18, 5-methoxy-3-{[6-methoxy-7-(2-methoxyethoxy)quinazolin-4-yl]amino}-2-(phenylthio)benzo-1,4-quinone], in test [1] (setting [3]), the inhibition at 0.1 µM turned out to be 13%. The inhibition at 1 µM in test [1] (setting [3]) was 2%; in test [1] (setting [4]) it was -30%; at KDR, 27%.

With `COCCOc1cc2ncnc(NC3=CC(=O)C(OC)=CC3=O)c2cc1OC` [Example 105, 2-(methoxy)-5-{[6-methoxy-7-(2-methoxyethoxy)quinazolin-4-yl]amino}benzo-1,4-quinone], the inhibition at 0.1 µM in test [2] (conc. 100 nM) was -1%. The inhibition at 1 µM in test [2] (conc. 1000 nM) worked out at 36%. For the same compound, the inhibition at 10 µM in test [2] (conc. 10000 nM) came out at 88%.

As for `COCCOc1cc2ncnc(NC3=CC(=O)C(N(C)c4cccc(F)c4)=CC3=O)c2cc1OC` [Example 74, 2-[(3-fluorophenyl)(methyl)amino]-5-{[6-methoxy-7-(2-methoxyethoxy)quinazolin-4-yl]amino}benzo-1,4-quinone], in test [1] (setting [3]), the inhibition at 0.1 µM amounted to 27%. Besides, the inhibition at 1 µM was determined as 89% in test [1] (setting [3]), 84% in test [1] (setting [4]) and 4% at KDR.

On to `COCCOc1cc2ncnc(NC3=CC(=O)C(Oc4cccc(C(C)=O)c4)=CC3=O)c2cc1OC` [Example 34, 2-(3-acetylphenoxy)-5-{[6-methoxy-7-(2-methoxyethoxy)quinazolin-4-yl]amino}benzo-1,4-quinone], for which, in test [1] (setting [3]), the inhibition at 0.1 µM was 55%. The inhibition at 1 µM in test [1] (setting [3]) came out at 95%; in test [1] (setting [4]) it was 97%; at KDR, 12%.

Take `COCCOc1cc2ncnc(NC3=CC(=O)C(Cl)=CC3=O)c2cc1OC` [Example 25, 2-chloro-5-{[6-methoxy-7-(2-methoxyethoxy)quinazolin-4-yl]amino}benzo-1,4-quinone]: the inhibition at 0.1 µM in test [2] (conc. 100 nM) turned out to be 29%. For the same compound, the inhibition at 1 µM in test [2] (conc. 1000 nM) was 51%. In test [2] (conc. 10000 nM), the inhibition at 10 µM came out at 81%.

Consider `COCCOc1cc2ncnc(NC3=CC(=O)C(Oc4cccc(C(F)(F)F)c4)=CC3=O)c2cc1OC` [Example 43, 2-{[6-methoxy-7-(2-methoxyethoxy)quinazolin-4-yl]amino}-5-[3-(trifluoromethyl)phenoxy]benzo-1,4-quinone], for which the IC50 in test [1] (ATP conc. 10 μM) came out at 121 nM. For the same compound, in test [1] (setting [3]), the inhibition at 0.1 µM turned out to be 45% and the inhibition at 1 µM stood at 89%. Moreover, in test [2] (conc. 1000 nM), the inhibition at 1 µM was 36%. Further, the inhibition at 10 µM in test [2] (conc. 10000 nM) came to 88%.

Take `COCCOc1cc2ncnc(NC3=CC(=O)C(C)=CC3=O)c2cc1OC` [Example 15, 2-{[6-methoxy-7-(2-methoxyethoxy)-4-quinazolinyl]amino}-5-methylbenzo-1,4-quinone]: the inhibition at 0.1 µM in test [2] (conc. 100 nM) worked out at 24%. Also, in test [2] (conc. 10000 nM), the inhibition at 10 µM came out at 96%. The “% Inhibition of VEGF-dependent growth of HUVEC” value in test [2] (conc. 100 nM) was 40% and 42%; in test [2] (conc. 1000 nM) it was 86% and 95% and 67%; in test [2] (conc. 10000 nM), 98% and 97%.

For the compound `COCCOc1cc2ncnc(NC3=CC(=O)C(Oc4ccc(OC)cc4)=CC3=O)c2cc1OC` [Example 32, 2-{[6-methoxy-7-(2-methoxyethoxy)quinazolin-4-yl]amino}-5-(4-methoxyphenoxy)benzo-1,4-quinone], the IC50 in test [1] (ATP conc. 10 μM) stood at 4.8 nM. The inhibition at 0.1 µM amounted to 88% in test [1] (ATP conc. 10 μM) and 10% in test [2] (conc. 100 nM). Moreover, the inhibition at 1 µM in test [1] (ATP conc. 10 μM) was found to be 96%; in test [1] (ATP conc. 1000 μM) it was 98%; in test [2] (conc. 1000 nM), 41%. Also, the inhibition at 10 µM in test [2] (conc. 10000 nM) amounted to 98%.

As for `COCCOc1cc2ncnc(NC3=CC(=O)C(Oc4ccc(C#N)cc4)=CC3=O)c2cc1OC` [Example 31, 4-[(4-{[6-methoxy-7-(2-methoxyethoxy)quinazolin-4-yl]amino}-3,6-dioxocyclohexa-1,4-dien-1-yl)oxy]benzonitrile], in test [1] (ATP conc. 10 μM), the inhibition at 0.1 µM came out at 82% and the inhibition at 1 µM was 96%. Moreover, the inhibition at 1 µM in test [1] (ATP conc. 1000 μM) stood at 98%.

In the case of `COCCOc1cc2ncnc(NC3=CC(=O)C(Oc4ccc(C(F)(F)F)cc4)=CC3=O)c2cc1OC` [Example 36, 2-{[6-methoxy-7-(2-methoxyethoxy)quinazolin-4-yl]amino}-5-[4-(trifluoromethyl)phenoxy]benzo-1,4-quinone], the inhibition at 0.1 µM in test [1] (setting [3]) came out at 79%. The inhibition at 1 µM came out at 96% in test [1] (setting [3]) and 98% in test [1] (setting [4]).

In the case of `COCCOc1cc2ncnc(NC3=CC(=O)C(Oc4ccc(F)cc4)=CC3=O)c2cc1OC` [Example 30, 2-(4-fluorophenoxy)-5-{[6-methoxy-7-(2-methoxyethoxy)quinazolin-4-yl]amino}benzo-1,4-quinone], the inhibition at 0.1 µM in test [1] (ATP conc. 10 μM) stood at 83%. For the same compound, the inhibition at 1 µM came out at 96% in test [1] (ATP conc. 10 μM) and 98% in test [1] (ATP conc. 1000 μM).

For `COCCOc1cc2ncnc(NC3=CC(=O)C(Oc4ccc(C(C)(C)c5ccccc5)cc4)=CC3=O)c2cc1OC` [Example 56, 2-{[6-methoxy-7-(2-methoxyethoxy)quinazolin-4-yl]amino}-5-[4-(1-methyl-1-phenylethyl)phenoxy]benzo-1,4-quinone], 62.2 nM corresponded to half-maximal inhibition in test [1] (ATP conc. 10 μM) (IC50). Besides, in test [1] (setting [3]), the inhibition at 0.1 µM amounted to 69% and the inhibition at 1 µM amounted to 81%.

Take `COCCOc1cc2ncnc(NC3=CC(=O)C(N(C)c4ccccc4)=CC3=O)c2cc1OC` [Example 76, 2-{[6-methoxy-7-(2-methoxyethoxy)quinazolin-4-yl]amino}-5-[methyl(phenyl)amino]benzo-1,4-quinone]: the inhibition at 0.1 µM in test [2] (conc. 100 nM) is -30%. Moreover, the inhibition at 1 µM in test [2] (conc. 1000 nM) was found to be 63%. Further, the inhibition at 10 µM in test [2] (conc. 10000 nM) came to 96%.

Values taken from patent publication US20070299092A1 (Wyeth, priority 2004, published 2007).
